According to patent US10328079B2, “[6R]-MTHF multiple bolus administration in 5-fluorouracil based chemotherapy” (Isofol Medical AB, priority 2017, dated 2019):
Several values for one entry are separate records, joined by “and”; a condition that tells them apart may be missing. Equal entries are not always repeated. Entries after “also recorded” stand apart in the source; their conditions may differ. Where two headings read alike, the source gives them in different places.

Experiments:
colorectal tumors = settings: cited from earlier work
[1] = test system: advanced and recurring head and neck squamous cell cancer; settings: 5-FU in combination therapies with platinum compounds; cited from earlier work
solid tumors = settings: cited from earlier work
[2] = Phase IIb, first-line patients, in combination with 5-FU; cited from earlier work
[3] = test system: previously untreated metastatic colorectal cancer; settings: Phase II Trial; cited from earlier work
pancreas cancer = settings: CoFactor combined with 5-FU; cited from earlier work
colorectal cancer = settings: cited from earlier work; for ORR: Phase IIb, first-line patients, in combination with 5-FU
[4] = test system: thymidylate synthase (TS); test: Historical group comparison study: incremental plasma dUrd (marker of TS inhibition) 24 h after 5-FU bolus plus folate; format: in vivo, human
Experimental: The elevation of plasma 2′-deoxyuridine (dUrd) is a marker of TS inhibition. (Ford et al. (2002) Clinical Cancer Research, 8(1): 103-109).
The historical group comparison study was conducted as follows:
All patients were treated with a standard dose of 500 mg 5-FU given as a bolus injection plus the respective folate [6R]-MTHF or LV, also given as bolus injections.
In Gothenburg (Sweden), for almost two decades, clinical, treatment and outcomes data on all patients with CRC have been collected at the local university hospital (Östra sjukhuset—Sahlgrenska Universitetssjukhuset). Plasma and tissue samples have been stored in a biobank under appropriate physical conditions for long term storage. The database and the biobank operate under the auspices of the relevant ethical and regulatory permissions. Patients having been treated with the standard 5-FU dose, 500 mg/m2 plus i.v. bolus LV, 60 mg/m2 were randomly drawn from the databank. For all patients, stored plasma samples were used for determination of dUrd.
Twenty-four patients with metastatic colorectal cancer (mCRC) treated with 5-FU plus 60 mg/m^2 LV were drawn at random from the database and levels of dUrd were determined at t0 and t24 from two treatment cycles for each patient and the mean values and standard deviations for the differences between t24 and t0 were calculated in the same way as for the [6R]-MTHF patients. Since LV is a “racemic” 50:50 mixture of the natural (S-formyl-tetrahydrofolate) and unnatural (R-formyl-tetrahydrofolate) isomers, the active isomer constitutes one half of the racemic LV doses given. The molecular weights for LV and [6R]-MTHF are very similar and therefore 60 mg of LV may be considered as equimolar with 30 mg of [6R]-MTHF.
All patients were enrolled in the ISO-CC-005 study and measured during two consecutive treatment cycles with 5-FU. Values for dUrd were measured immediately before injection of 5-FU (to) and after 24 hours (t24). Mean values and standard deviations for differences between t24 and to were calculated for the patients on each dose level of 30 and 60 mg/m^2 respectively.
The differences between all three groups were tested by means of the […] and thereafter the difference between the two equimolar groups LV 60 mg/m2 and 6R-MTHF 30 mg/m^2 was tested by means of the Mann-Whitney U test. P-values less than 0.05 were considered significant.
Plasma dUrd was determined by a method comprising liquid chromatography followed by tandem mass spectrometry broadly summarized as follows. Plasma samples were removed from −80° C. freezer, trichloroacetic acid was added to the plasma, and the samples mixed and centrifuged. The supernatant was filtered in a 10 kDa molecular weight cut-off membrane filter and again centrifuged for 30 min. The solution at the bottom of the tube was then ready for LC-MS/MS analysis. Calibration samples were prepared in the same way using blank plasma samples and different internal standard concentrations. The injection volume into LC-MS/MS was 40 μl. Deoxyuridine and chlorodeoxyuridine were ionized by electrospray negative mode. MS parameters were optimized for maximum response of all folates. A MS/MS acquisition method (multiple reaction monitoring) was utilized.

[5] = test system: stage IV colorectal cancer; test: ISO-CC-005 Phase I/II trial: tumor response according to RECIST 1.1; format: in vivo, human; settings: for ORR (objective response rate): after 8 weeks' treatment, with 5-FU
Source text: As used herein, the term ORR shall refer to the Objective Response Rate, i.e. the proportion of patients with reduction in tumor burden of a predefined amount.
Complete Response (CR): • Disappearance of all target lesions. Any pathological lymph nodes (whether target or non-target) must have reduction in short axis to <10 mm.
(Note: the appearance of one or more new lesions is also considered progression).
Stable Disease (SD): • Neither sufficient shrinkage to qualify for PR nor sufficient increase to qualify for PD, taking as reference the smallest sum diameters while on study. (Eisenhauer E A, Therasse P, Bogaerts J, Schwartz L H, Sargent D, Ford R, et al. New response evaluation criteria in solid tumors: revised RECIST guideline (version 1.1). Eur J Cancer. 2009 January; 45(2):228-47)
The safety and efficacy of [6R]-5,10-methylenetetrahydrofolate ([6R]-MTHF) is analyzed in an open-label, multiple-site, Phase I/II Dose Cohort Trial (ISO-CC-005) in combination with a fixed dose of 5-Fluorouracil (5-FU) alone or together with a fixed dose of Bevacizumab, Oxaliplatin or Irinotecan in patients with stage IV colorectal cancer. A maximum of 63 Stage IV CRC patients eligible for 1st, 2nd or 3rd line treatment are planned to be enrolled in this study disposed as follows: three to six patients in each dose cohort, and three additional patients in one dose cohort in each treatment arm according to the following study design (Table 1).
[6R]-5,10-Methylenetetrahydrofolic acid ([6R]-MTHF) is formulated as a lyophylised powder containing 100 mg per vial (calculated as free acid). Dosing: Rapid i.v. bolus injections at a fixed dose of 30, 60, 120 or 240 mg/m^2, will be administered approximately 30 minutes after administration of 5-FU on Day 1 and Day 2 in each treatment cycle in all dose cohorts of the study (i.e. regardless of treatment arm). The regimen will be repeated every second week for up to eight (8) cycles, i.e. up to sixteen (16) weeks.
5-FU (5-fluorouracil) is formulated as injection solution. Dosing: 5-FU will be administered as i.v. bolus injections on Day 1 and Day 2 in each treatment cycle. In Arm #2 and Arm #3 of the study, 5-FU will be administered approximately 60 minutes after start of Oxaliplatin or Irinotecan administration, respectively (see description below). The treatment will be repeated every second week for up to eight (8) cycles, i.e. up to sixteen (16) weeks.
ISO-CC-005 is an open clinical phase I/II tolerability and dose definition study designed to evaluate safety and define the [6R]-MTHF dose for continued development. It evaluates four doses of [6R]-MTHF in combination with 5-FU with or without the different combinations of irinotecan or oxaliplatin and bevacizumab in patients with metastatic Colorectal Cancer using 4 different protocols: • MOD+5-FU: [6R]-MTHF in combination with 5-FU only, similar to Nordic FLV protocol • MOD+FLIRI: [6R]-MTHF in combination with 5-FU and Irinotecan, similar to Nordic FLIRI protocol • MOD+FLOX: [6R]-MTHF in combination with 5-FU and Oxaliplatin, similar to Nordic FLOX protocol • MOFOX: [6R]-MTHF in combination with 5-FU and Oxaliplatin, similar to FOLFOX-6 protocol
In one of the treatment protocols (MOFOX) the total dose of [6R]-MTHF was divided into two i.v. bolus injections dispensed approximately 30 and 60 minutes after the initial administration of 5-FU bolus injection (at 0 minute), respectively.
3 patients in total had at this point been treated according to the MOFOX protocol.
By December 2017 the first-line patients were assessed again after 16 weeks of treatment (16 weeks is considered the standard schedule for cancer treatment according to clinical practice guidelines for ESMO (European Society for Medical Oncology)). Four (4) 1st line patients could not be followed for the additional 8 weeks' treatment due to study protocol formalities, and no further 1st line patients had been analysed at this point.

[6] = ISO-CC-005 Phase I/II trial: safety / adverse events; format: in vivo, human
Source text: A maximum of 63 Stage IV CRC patients eligible for 1st, 2nd or 3rd line treatment are planned to be enrolled in this study disposed as follows: three to six patients in each dose cohort, and three additional patients in one dose cohort in each treatment arm according to the following study design (Table 1). ISO-CC-005 is an open clinical phase I/II tolerability and dose definition study designed to evaluate safety and define the [6R]-MTHF dose for continued development. It evaluates four doses of [6R]-MTHF in combination with 5-FU with or without the different combinations of irinotecan or oxaliplatin and bevacizumab in patients with metastatic Colorectal Cancer using 4 different protocols: • MOD+5-FU: [6R]-MTHF in combination with 5-FU only, similar to Nordic FLV protocol • MOD+[…] in combination with 5-FU and Irinotecan, similar to Nordic FLIRI protocol • MOD+FLOX: [6R]-MTHF in combination with 5-FU and Oxaliplatin, similar to Nordic FLOX protocol • MOFOX: [6R]-MTHF in combination with 5-FU and Oxaliplatin, similar to FOLFOX-6 protocol By September 2017 the gastrointestinal (GI) adverse effects (AEs) for in total 37 patients had been analyzed. Of the 37 patients, only 2 (two) patients (5.4%) reported a GI adverse event (defined as nausea, vomiting and/or dehydration) of grade 3 or greater.

Thymidylate Synthase = Thymidylate Synthase (Lacticaseibacillus casei, UniProt P00469); settings: cited from earlier work
[7] = of 8 first-line patients, 16 weeks
[8] = of 13 patients analyzed by August 2017, 8 weeks
[9] = of first 12 first-line patients, 8 treatment weeks

Sequence of Thymidylate Synthase (P00469 whole entry): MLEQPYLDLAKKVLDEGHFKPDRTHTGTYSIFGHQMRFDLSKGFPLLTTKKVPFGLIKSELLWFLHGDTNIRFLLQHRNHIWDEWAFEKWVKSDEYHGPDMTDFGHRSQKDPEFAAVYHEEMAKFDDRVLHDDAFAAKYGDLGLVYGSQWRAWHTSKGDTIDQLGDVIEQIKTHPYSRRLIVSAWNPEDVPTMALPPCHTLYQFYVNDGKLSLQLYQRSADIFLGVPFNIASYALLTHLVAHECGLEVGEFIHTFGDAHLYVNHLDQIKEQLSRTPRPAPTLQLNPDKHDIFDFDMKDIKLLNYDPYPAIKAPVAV

O=c1[nH]cc(F)c(=O)[nH]1 [5-FU, 5-fluorouracil]
response rate (colorectal tumors; 5-FU given as a monotherapy): around 10%
Response rates [1]: around 30%
survival time [1]: around 6 months
overall response rate (solid tumors; 5-FU alone): 10-15%

Nc1nc(=O)c2c([nH]1)NCC1CN(c3ccc(C(=O)N[C@@H](CCC(=O)[O-])C(=O)[O-])cc3)CN21.[Ca+2] (stereo partly drawn) [CoFactor, (dl)-5,10,-methylenepteroyl-monoglutamate calcium salt]
patients reporting at least one AE of grade 3 or greater [2]: 7.7%
response rate [3]: 35%
clinical benefit, defined as stable disease or tumor response, patients (pancreas cancer): 40%
efficacy and safety compared with leucovorin (colorectal cancer; Phase IIb study, colorectal cancer): no significant differences
ORR (colorectal cancer): 10.7%

Nc1nc2c(c(=O)[nH]1)N(C=O)C(CNc1ccc(C(=O)N[C@@H](CCC(=O)O)C(=O)O)cc1)CN2 (stereo partly drawn) [LV, 5-formyl tetrahydrofolic acid]
patients reporting at least one AE of grade 3 or greater [2]: 3.3%
response rate (colorectal tumors; Leucovorin (LV) added to 5-FU): 21%
Mean (t24-t0) plasma dUrd ([4]; LV 60 mg/m^2 BSA (racemate; active compound 30 mg/m^2), bolus with 5-FU 500 mg/m^2, 24 hours, n=48): 48.7 pmol/mL
ORR (colorectal cancer): 13.3%
overall response rates (solid tumors; LV added to 5-FU): over 20%

Nc1nc2c(c(=O)[nH]1)N1CN(c3ccc(C(=O)N[C@@H](CCC(=O)O)C(=O)O)cc3)C[C@H]1CN2 [[6R]-MTHF, [6R]-5,10-methylenetetrahydrofolate]
ORR ([5]; 8 remaining first-line patients, 16 weeks of treatment): 63%
ORR (objective response rate) ([5]; 12 first-line patients group): 50%
first-line patients with progressive disease (PD) ([5]; 12 first-line patients, 8 weeks): none
ORR (objective response rate) ([5]; 13 patients (12 first-line + 1 second-line), RECIST 1.1): 54%
progression of solid tumors between 8 and 16 weeks after initializing treatment ([5]; [6R]-MTHF and 5-FU, treatment period of at least 8 weeks): no patient displayed tumor progression; also recorded: No statistically significant progression
clinical benefit, defined as stable disease or partial response, treated patients ([5]; [6R]-MTHF combined with 5-FU, colorectal cancer): > 90%
ORRs achieved with initial 5-FU followed by multiple IV boluses of [6R]-MTHF ([5]; colorectal cancer patients, boluses interspaced by about 10-60 minutes): 60-80% and 60-85%
patients with partial response (PR) ([5]; group treated with at least 60 mg/m2 [6R]-MTHF, 5 out of 7 patients, 8 weeks): 71%
patients showing partial response [5, 7]: 5 patients
patients showing stable disease [5, 7]: 3 patients
patients showing partial response [5, 8]: 7 patients
patients showing stable disease [5, 8]: 6 patients
patients showing partial response (PR) [5, 9]: 6 patients
patients showing stable disease [5, 9]: 6 patients
Mean (t24-t0) plasma dUrd ([4]; [6R]-MTHF 30 mg/m^2 BSA bolus with 5-FU 500 mg/m^2, 24 hours, n=18): 74.7 pmol/mL
level of dUrd vs equimolar LV, together with 5-FU ([4]; [6R]-MTHF 30 mg/m^2 vs LV 60 mg/m^2, p=0.03): significantly higher
Mean (t24-t0) plasma dUrd ([4]; [6R]-MTHF 60 mg/m^2 BSA bolus with 5-FU 500 mg/m^2, 24 hours, n=16): 91.8 pmol/mL
TS inhibition from fixed doses of 5-FU vs [6R]-MTHF dose (dUrd) ([4]; dUrd measurements incl. 120 mg vs 240 mg, ISO-CC-005): dose dependent and flattens off att very high doses
safety profile compared to other patients in the study or historical control ([6]; 12 first-line patients): no signs of an impaired safety profile
patients reporting a GI adverse event (nausea, vomiting and/or dehydration) of grade 3 or greater ([6]; 37 patients analyzed by September 2017 (2 patients)): 5.4%
toxicity of 5-FU when combined with [6R]-MTHF compared to 5-FU with other folate adjuvants ([6]; ISO-CC-005 results so far): reduced

Nc1nc2c(c(=O)[nH]1)N1CN(c3ccc(C(=O)N[C@@H](CCC(=O)O)C(=O)O)cc3)C[C@@H]1CN2 [[6S]-MTHF]
effect on the natural [6R]-isomer as co-substrate for TS (Thymidylate Synthase): partial competitive inhibitor
